Assay results taken from patent US20250263370A1 (Tay Therapeutics Limited, priority 2022, published 2025).
pIC50: −log10 of the molar value. Read-outs that look alike come from different tables or passages of the source.

Assays:
BRD4 BD1 = BRD4 BD1 (Homo sapiens (Human), UniProt O60885); assay: NanoBRET bromodomain assay, NanoLuc-BRD4-BD1 fusion in HEK293 cells; type: cell-based; settings: top concentration 10 μM
Experimental: HEK293 cells were transfected using NanoLuc-BRD4-BD1 or NanoLuc-BRD4-BD2 fusion vectors and incubated at 37° C. in an atmosphere of 5% CO2 for 20-24 hours. The transfected cells were then dispensed into 96-well plates using 90 μl cell suspension per well containing 2×10^5 cells/mL in Opti-MEM and 1× final concentration of tracer. 90 μL per well of cell suspension without tracer was also dispensed into at least 3 wells as “No tracer control samples” for background correction. Serially diluted test compounds were prepared at 1000× concentration in DMSO and further diluted to 10× concentration in Opti-MEM. […] Plates were then incubated at 37° C. +5% 002 incubator for 2 hours. […] Donor emission (450 nm) and acceptor emission (610 nm) were measured using PHERAstar (BMG LabTech). For data analysis, the raw BRET ratio was generated and converted to milliBRET units with background correction using the formula: [(Acceptorsample/Donorsample−(Acceptorno tracer control/Donorno tracer control)]×1000. The mBU data was plotted as a function of compound concentration and IC50s for BRET assay were determined by nonlinear regression analysis of concentration response curves using the Collaborative Drug Discovery Vault software. The fold-selectivity was calculated by dividing the IC50 for BRD4 BD1 by the IC50 for BRD4 BD2.

BRD4 BD2 = BRD4 BD2 (Homo sapiens (Human), UniProt O60885); assay: NanoBRET bromodomain assay, NanoLuc-BRD4-BD2 fusion in HEK293 cells; settings: for pIC50: NanoBRET, HEK293 cells, top concentration 10 μM; for Fold selectivity: IC50 for BRD4 BD1 divided by IC50 for BRD4 BD2, qualitative if an IC50 is at the upper limit;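 for all read-outs here: tracer displacement BRET read in transfected cells after 2 h compound exposure at 37 °C, signal in milliBRET units corrected against no-tracer background wells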

Structure (SMILES)	pIC50 (BRD4 BD1)	pIC50 (BRD4 BD2; BRD4 BD2 (IC50))	Fold selectivity (BRD4 BD2)	pIC50 (BRD4 BD2; read-out: BRD4 BD2 (IC50))
CCNC(=O)c1cc(OC(C)c2ccccc2F)c(C(=O)NC)[nH]1 (single isomer, unassigned) [Example 21, N^5-ethyl-3-(1-(2-fluorophenyl)ethoxy)-N^2-methyl-1H-pyrrole-2,5-dicarboxamide]	≤ 5.00	< 5.00	— (Fold ≥0 and ≤2)	
CCNC(=O)c1cc(OC(C)c2ccc(C)cc2)c(C(=O)NC)[nH]1 (single isomer, unassigned) [Example 25, N^5-ethyl-N^2-methyl-3-(1-(p-tolyl)ethoxy)-1H-pyrrole-2,5-dicarboxamide]	≤ 5.00	> 7.30	XXX (Fold >200)	
CCNC(=O)c1cc(OC(C)c2ccc(C)cc2)c(C(=O)NC)[nH]1 (single isomer, unassigned) [Example 26, N^5-ethyl-N^2-methyl-3-(1-(p-tolyl)ethoxy)-1H-pyrrole-2,5-dicarboxamide]	≤ 5.00	< 5.00	— (Fold ≥0 and ≤2)	
CNC(=O)c1[nH]c(C(=O)N[C@H]2CC[C@H](O)CC2)cc1OC(C)c1ccc(Cl)cc1F (single isomer, unassigned) [Example 37, 3-(1-(4-chloro-2-fluorophenyl)ethoxy)-N^5-(trans-4-hydroxycyclohexyl)-N^2-methyl-1H-pyrrole-2,5-dicarboxamide]	≤ 5.00	5.00 to 6.00	— (Fold ≥0 and ≤2)	
CCNC(=O)c1cc(OC(C)c2ccc(Cl)cc2F)c(C(=O)NC)[nH]1 (single isomer, unassigned) [Example 42, 3-(1-(4-chloro-2-fluorophenyl)ethoxy)-N^5-ethyl-N^2-methyl-1H-pyrrole-2,5-dicarboxamide]	≤ 5.00	< 5.00	— (Fold ≥0 and ≤2)	
CCNC(=O)c1cc(OC(C)c2ccc(Br)cc2)c(C(=O)NC)[nH]1 (single isomer, unassigned) [Example 50, 3-(1-(4-bromophenyl)ethoxy)-N^5-ethyl-N^2-methyl-1H-pyrrole-2,5-dicarboxamide]	≤ 5.00	< 5.00	— (Fold ≥0 and ≤2)	
CCNC(=O)c1cc(OC(C)c2ccc(I)cc2)c(C(=O)NC)[nH]1 (single isomer, unassigned) [Example 52, N^5-ethyl-3-(1-(4-iodophenyl)ethoxy)-N^2-methyl-1H-pyrrole-2,5-dicarboxamide]	≤ 5.00	< 5.00	— (Fold ≥0 and ≤2)	
CCNC(=O)c1cc(OC(C)c2c(C)cccc2C)c(C(=O)NC)[nH]1 (single isomer, unassigned) [Example 65, 3-(1-(2,6-dimethylphenyl)ethoxy)-N^5-ethyl-N^2-methyl-1H-pyrrole-2,5-dicarboxamide]	≤ 5.00	< 5.00	— (Fold ≥0 and ≤2)	
CCNC(=O)c1cc(OC(C)c2c(Cl)cccc2Cl)c(C(=O)NC)[nH]1 (single isomer, unassigned) [Example 66, 3-(1-(2,6-dichlorophenyl)ethoxy)-N^5-ethyl-N^2-methyl-1H-pyrrole-2,5-dicarboxamide]	≤ 5.00	< 5.00	— (Fold ≥0 and ≤2)	
CCNC(=O)c1cc(OC(C)c2c(Cl)cccc2Cl)c(C(=O)NC)[nH]1 (single isomer, unassigned) [Example 67, 3-(1-(2,6-dichlorophenyl)ethoxy)-N^5-ethyl-N^2-methyl-1H-pyrrole-2,5-dicarboxamide]	≤ 5.00		— (Fold ≥0 and ≤2)	< 5.00
CCNC(=O)c1cc(OC(C)c2ccc(OC)cc2)c(C(=O)NC)[nH]1 (single isomer, unassigned) [Example 75, N^5-ethyl-3-(1-(4-methoxyphenyl)ethoxy)-N^2-methyl-1H-pyrrole-2,5-dicarboxamide]	≤ 5.00	6.70 to 7.30	XX (Fold >50 and ≤200)	
CCNC(=O)c1cc(OC(C)c2ccc(OC)cc2)c(C(=O)NC)[nH]1 (single isomer, unassigned) [Example 76, N^5-ethyl-3-(1-(4-methoxyphenyl)ethoxy)-N^2-methyl-1H-pyrrole-2,5-dicarboxamide]	≤ 5.00	< 5.00	— (Fold ≥0 and ≤2)	
CCNC(=O)c1cc(OC(C)c2ccnnc2)c(C(=O)NC)[nH]1 (single isomer, unassigned) [Example 78, N^5-ethyl-N^2-methyl-3-(1-(pyridazin-4-yl)ethoxy)-1H-pyrrole-2,5-dicarboxamide]	≤ 5.00	< 5.00	— (Fold ≥0 and ≤2)	
CCNC(=O)c1cc(OC(C)c2ccnnc2)c(C(=O)NC)[nH]1 (single isomer, unassigned) [Example 79, N^5-ethyl-N^2-methyl-3-(1-(pyridazin-4-yl)ethoxy)-1H-pyrrole-2,5-dicarboxamide]	≤ 5.00	5.00 to 6.00	— (Fold ≥0 and ≤2)	
